Read-outs that look alike come from different tables or passages of the source.
Assays:
[1] = tested on: cGMP PDE activity in HCT116 lysates; assay: cGMP hydrolysis in lysates from HCT116 colon tumor cells; type: biochemical, human; conditions: in words, Figure 1C
Description: (§1) PDE activity was measured using the IMAP fluorescence polarization (FP) PDE assay (Molecular Devices) in which binding of hydrolyzed fluorescent cyclic nucleotide substrate to the IMAP reagent increases FP as described previously.

[2] = tested on: β-catenin/TCF transcriptional activity in HCT116 cells; type: cell-based; conditions: HCT116, 24 hours of treatment
Description: Cells were seeded at a density of 5 × 10^4 cells per well in 24-well tissue culture plates and incubated overnight at 37°C. Cells were transiently transfected with 0.1 μg TOP-FLASH constructs (Millipore) and 0.1 μg β-galactosidase-expressing vector (Promega). After 24 hours of transfection, cells were treated with ADT-094 or vehicle for 24 hours. At the end of treatment, cells were lysed and both luciferase and β-galactosidase activities were measured using kits from Promega. All luciferase activity was normalized to β-galactosidase activity.

[3] = tested on: HCT116 colon tumor cells; assay: Growth assay (Cell Titer Glo), HCT116; type: cell-based, human; conditions: for HCT116 colon tumor cell growth: in words, Figure 1B; for IC50: Homo sapiens, HCT-116, 72 h
Description: All cell lines were expanded upon delivery, and numerous aliquots of low passage cells were preserved in liquid N2. Cells were passaged no longer than 2 months. Tumor cell lines obtained from ATCC were characterized by STR profiling as performed by ATCC. The NCM460 line was characterized by INCELL as described previously (e.g. tumorigenicity testing). No additional re-authentication of the cell lines was performed except for experimental reasons (e.g. confirmation of cell doubling time, morphology, sensitivity to SS, PDE5/10 expression levels, etc). Cells were plated in 96-well microtiter plates at a density of 5,000 cells per well. For drug treatment, cells were treated with compound or vehicle, and incubated at 37°C for 72 hours. […] For siRNA assays, cells were transfected with siRNA under the same condition described above. The effect of treatment on cell growth was measured using the Cell Titer Glo Assay as specified by the manufacturer (Promega). The IC50 values were determined as described previously. All experiments were repeated a minimum of three times to determine the reproducibility of the results. All error bars represent standard error of the mean (SEM). Statistical analysis of differences between samples was performed using the Student’s t-test.

[4] = tested on: β-catenin signaling in HCT116 colon tumor cells; assay: Western blotting of β-catenin, cyclin D1, survivin, HCT116; type: cell-based, human
Description: Western blotting was performed as described previously. Cells were treated with ADT-094 or vehicle for 8 hours before cell lysates were collected.

[5] = tested on: NCM460 normal colonocytes; conditions: as previously reported; cited from earlier work
[6] = molecular target: T1, PDE10 (Homo sapiens, UniProt Q9Y233); assay: IMAP fluorescence polarization PDE assay, recombinant PDE10; type: biochemical; conditions: recombinant enzyme
T1 construct: purchased BPS Biosciences
T1 sequence (Q9Y233 267-1055): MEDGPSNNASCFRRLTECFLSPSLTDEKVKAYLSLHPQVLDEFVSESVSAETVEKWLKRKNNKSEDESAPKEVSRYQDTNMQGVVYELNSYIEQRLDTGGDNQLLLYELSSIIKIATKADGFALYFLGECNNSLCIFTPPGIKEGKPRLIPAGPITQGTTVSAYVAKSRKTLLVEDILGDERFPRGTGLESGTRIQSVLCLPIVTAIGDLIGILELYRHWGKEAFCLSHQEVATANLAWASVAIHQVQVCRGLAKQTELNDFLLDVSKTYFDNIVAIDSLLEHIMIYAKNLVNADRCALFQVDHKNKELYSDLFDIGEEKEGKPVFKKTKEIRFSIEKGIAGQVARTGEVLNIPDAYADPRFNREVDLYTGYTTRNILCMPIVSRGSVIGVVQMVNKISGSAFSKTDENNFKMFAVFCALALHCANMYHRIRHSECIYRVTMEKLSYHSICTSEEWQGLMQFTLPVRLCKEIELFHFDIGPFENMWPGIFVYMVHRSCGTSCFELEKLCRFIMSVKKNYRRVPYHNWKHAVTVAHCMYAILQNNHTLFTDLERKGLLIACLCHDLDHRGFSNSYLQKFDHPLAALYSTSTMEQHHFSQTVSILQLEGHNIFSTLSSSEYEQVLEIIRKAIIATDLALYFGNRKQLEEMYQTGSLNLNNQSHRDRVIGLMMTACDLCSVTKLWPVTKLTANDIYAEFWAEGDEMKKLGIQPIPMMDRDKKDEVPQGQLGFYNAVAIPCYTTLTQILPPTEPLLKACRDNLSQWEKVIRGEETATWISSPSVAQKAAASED
Description: (§2) Recombinant PDE isozymes were purchased from BPS Biosciences. The PDE10 antibody was purchased from GeneTex, while the PDE5 antibody was purchased from Cell Signaling Technologies. Non-targeting control siRNA and PDE10 specific siRNAs were purchased from Qiagen. RNAiMAX transfection reagent was purchased from Invitrogen. DMSO was used as vehicle for all compounds unless otherwise noted. All other reagents were purchased from Sigma.
as §1
(§3) The IC50 values were determined as described previously. All experiments were repeated a minimum of three times to determine the reproducibility of the results. All error bars represent standard error of the mean (SEM). Statistical analysis of differences between samples was performed using the Student’s t-test. A P value of < 0.05 was considered statistically significant.

[7] = tested on: NCM460 normal colonocytes; assay: Growth assay (Cell Titer Glo), NCM460 normal colonocytes; type: cell-based, human; conditions: Homo sapiens, NCM460, 72 h, read-out: NCM460 growth IC50
Description: (§4) Human colon tumor cell lines, HCT116, HT29, SW480 and Caco-2 were obtained from the American Type Culture Collection (ATCC) and grown under standard cell culture conditions in RPMI 1640 medium containing 5% serum at 37°C in a humidified atmosphere with 5% CO2. The human colonocyte line, NCM460, that is derived from normal human colon mucosa was obtained from INCELL and grown in INCELL’s enriched M3:10 medium with 10% serum as recommended by supplier. All cell lines were expanded upon delivery, and numerous aliquots of low passage cells were preserved in liquid N2. Cells were passaged no longer than 2 months. Tumor cell lines obtained from ATCC were characterized by STR profiling as performed by ATCC. The NCM460 line was characterized by INCELL as described previously (e.g. tumorigenicity testing). No additional re-authentication of the cell lines was performed except for experimental reasons (e.g. confirmation of cell doubling time, morphology, sensitivity to SS, PDE5/10 expression levels, etc).
(§5) Cells were plated in 96-well microtiter plates at a density of 5,000 cells per well. For drug treatment, cells were treated with compound or vehicle, and incubated at 37°C for 72 hours. All growth assays were performed in 5% serum unless otherwise noted. Deionized water was used as vehicle control for papaverine. For siRNA assays, cells were transfected with siRNA under the same condition described above. The effect of treatment on cell growth was measured using the Cell Titer Glo Assay as specified by the manufacturer (Promega).
as §3

[8] = tested on: HT29 colon tumor cells; assay: Growth assay (Cell Titer Glo), HT29; type: cell-based; conditions: Homo sapiens, HT-29, 72 h
Description: as §4, §5, §3

[9] = molecular target: T2, purified ovine COX-1 (Ovis aries, UniProt P05979); assay: COX-1 colorimetric assay; type: biochemical
T2 construct: purchased Cayman
T2 sequence (P05979 25-600): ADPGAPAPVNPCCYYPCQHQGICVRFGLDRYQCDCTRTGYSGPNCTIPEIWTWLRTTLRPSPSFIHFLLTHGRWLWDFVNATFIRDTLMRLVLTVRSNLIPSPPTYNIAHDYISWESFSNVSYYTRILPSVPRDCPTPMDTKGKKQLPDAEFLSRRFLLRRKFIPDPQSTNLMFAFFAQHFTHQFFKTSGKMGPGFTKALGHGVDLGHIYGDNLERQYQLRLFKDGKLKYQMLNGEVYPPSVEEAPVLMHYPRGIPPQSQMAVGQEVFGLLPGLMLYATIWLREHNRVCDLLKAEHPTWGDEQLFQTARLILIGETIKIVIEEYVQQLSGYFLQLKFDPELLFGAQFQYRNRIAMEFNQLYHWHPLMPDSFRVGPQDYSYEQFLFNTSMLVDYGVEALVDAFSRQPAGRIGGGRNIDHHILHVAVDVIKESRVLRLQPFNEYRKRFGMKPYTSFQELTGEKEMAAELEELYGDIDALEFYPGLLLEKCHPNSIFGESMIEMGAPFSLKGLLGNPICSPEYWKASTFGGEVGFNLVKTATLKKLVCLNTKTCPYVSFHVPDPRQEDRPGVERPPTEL
Description: COX-1 and COX-2 activities were measured using purified ovine COX-1 and COX-2 with colorimetric assay kits obtained from Cayman as previously reported. The activities of COX-1 and COX-2 were measured after the addition of arachidonic acid and incubation at 25°C for 5 min by absorbance at 590 nm as specified by the manufacturer.
as §3

[10] = molecular target: T3, PDE5 (Homo sapiens, UniProt O76074); assay: IMAP fluorescence polarization PDE assay, recombinant PDE5; type: biochemical; conditions: recombinant enzyme
T3 construct: purchased BPS Biosciences
Description: as §2, §1, §3

Compound	cGMP hydrolysis in HCT116 lysates [1]	β-catenin/TCF transcriptional activity [2]	HCT116 colon tumor cell growth [3]	expression of survivin [4]	β-catenin levels [4]	growth of colonocytes [5]	IC50 [6]	IC50 [7]	IC50 ([8]; read-out: HT29 growth IC50, 72 hours of treatment)	IC50 ([8]; read-out: HT29 growth IC50, Figure 3C, luciferase-based ATP assay, 72 hours)	IC50 ([3]; read-out: HCT116 growth IC50, 72 hours of treatment)	IC50 ([3]; read-out: HCT116 growth IC50, Figure 3C, luciferase-based ATP assay, 72 hours)	IC50 [9]	IC50 [10]
COc1ccc(Cc2nccc3cc(OC)c(OC)cc23)cc1OC [papaverine]	inhibited cGMP hydrolysis	reduced	effectively inhibit	reduced	reduced	did not significantly affect	–	–	–	–	–	–	–	–
Clc1cccc(Nc2nnc(-c3ccccc3)c3ccccc23)c1 [MY5445, 1-(3-chlorophenylamino)-4-phenylphthalazine]	inhibited cGMP hydrolysis	reduced	effectively inhibit	reduced	reduced	did not significantly affect	–	–	–	–	–	–	–	–
CSc1ccc(/C=C2/C(C)=C(CC(=O)O)c3cc(F)ccc32)cc1 [SS, Sulindac sulfide, reference compound]	–	–	–	–	–	–	70 µM	> 100 µM	68 µM	63.8 µM	51 µM	51.1 µM	1.2 µM	38 µM
